Values after ≈ are worked out from the molar mass of the structure shown.
Experiments:
80S Ribosome = experiment: Inhibition of human ribosome containing eukaryotic wild type ribosomal RNA A-site in rabbit reticulocyte lysates assessed as reduction in ribosome-mediated protein synthesis in presence of S-30 extracts by fire fly luciferase synthesis based cell-free translation assay
Staphylococcus aureus [1] = experiment: Antibacterial activity against methicillin-resistant Staphylococcus aureus isolate AG 044 by broth microdilution assay; type: functional
Staphylococcus aureus [2] = experiment: Antibacterial activity against methicillin-resistant Staphylococcus aureus isolate AG 039 by broth microdilution assay; type: functional
Escherichia coli [3] = experiment: Antibacterial activity against Escherichia coli isolate 003 by broth microdilution assay; type: functional
Bacterial 70S ribosome = experiment: Inhibition of Mycobacterium smegmatis ribosome containing wild type ribosomal RNA A-site in rabbit reticulocyte lysates assessed as reduction in ribosome-mediated protein synthesis in presence of S-30 extracts by fire fly luciferase synthesis based cell-free translation assay; design: species or system Mycolicibacterium smegmatis
Escherichia coli [4] = experiment: Antibacterial activity against Escherichia coli isolate 001 by broth microdilution assay; type: functional
Escherichia coli [5] = experiment: Antibacterial activity against Escherichia coli isolate 006 by broth microdilution assay; type: functional
[6] = Inhibition of human ribosome containing eukaryotic ribosomal RNA A-site A1555G mutant in rabbit reticulocyte lysates assessed as reduction in ribosome-mediated protein synthesis in presence of S-30 extracts by fire fly luciferase synthesis based cell-free translation assay
[7] = Inhibition of Mycobacterium smegmatis ribosome containing ribosomal RNA A-site G1491A mutant in rabbit reticulocyte lysates assessed as reduction in ribosome-mediated protein synthesis in presence of S-30 extracts by fire fly luciferase synthesis based cell-free translation assay; design: species or system Mycolicibacterium smegmatis
[8] = Inhibition of Mycobacterium smegmatis ribosome containing ribosomal RNA A-site A1408G mutant in rabbit reticulocyte lysates assessed as reduction in ribosome-mediated protein synthesis in presence of S-30 extracts by fire fly luciferase synthesis based cell-free translation assay; design: species or system Mycolicibacterium smegmatis
[9] = Inhibition of human ribosome containing eukaryotic ribosomal RNA A-site Cyt14 allele in rabbit reticulocyte lysates assessed as reduction in ribosome-mediated protein synthesis in presence of S-30 extracts by fire fly luciferase synthesis based cell-free translation assay
[10] = Inhibition of Mycobacterium smegmatis ribosome containing ribosomal RNA A-site G1491C mutant in rabbit reticulocyte lysates assessed as reduction in ribosome-mediated protein synthesis in presence of S-30 extracts by fire fly luciferase synthesis based cell-free translation assay; design: species or system Mycolicibacterium smegmatis
Staphylococcus aureus [11] = experiment: Antibacterial activity against methicillin-resistant Staphylococcus aureus isolate AG 038 by broth microdilution assay; type: functional
Ribosome = experiment: Inhibition of ribosome-mediated protein synthesis in rabbit reticulocyte lysates in presence of S-30 extracts by fire fly luciferase synthesis based cell-free translation assay; design: species or system Oryctolagus cuniculus
Staphylococcus aureus [12] = experiment: Antibacterial activity against methicillin-resistant Staphylococcus aureus isolate AG 042 by broth microdilution assay; type: functional
Escherichia coli [13] = experiment: Antibacterial activity against Escherichia coli isolate 055 by broth microdilution assay; type: functional

Row | SMILES | IC50 (80S Ribosome) | MIC (Staphylococcus aureus [1]) | MIC (Staphylococcus aureus [2]) | MIC (Escherichia coli [3]) | IC50 (Bacterial 70S ribosome) | MIC (Escherichia coli [4]) | MIC (Escherichia coli [5]) | IC50 [6] | IC50 [7] | IC50 [8] | IC50 [9] | IC50 [10] | MIC (Staphylococcus aureus [11]) | IC50 (Ribosome) | MIC (Staphylococcus aureus [12]) | MIC (Escherichia coli [13])
1 | NC[C@@H]1O[C@H](O[C@H]2[C@@H](O)[C@H](O[C@@H]3[C@@H](O)[C@H](N)C[C@H](N)[C@H]3O[C@H]3O[C@H](CO)[C@@H](O[C@@H]4O[C@H](CO)[C@@H](N)[C@H](O)[C@H]4O)[C@H](O)[C@H]3N)O[C@@H]2CO)[C@H](N)[C@@H](O)[C@@H]1O | 9.81 µM | 32 µg/mL (≈ 41.2 µM) | > 64 µg/mL | > 64 µg/mL | 0.373 µM | > 64 µg/mL | 16 µg/mL (≈ 20.6 µM) | 17.38 µg/mL | 4.87 µg/mL | 2.39 µg/mL | 21.43 µg/mL | 32.03 µg/mL | 32 µg/mL (≈ 41.2 µM) | 32.41 µg/mL | > 64 µg/mL | > 64 µg/mL
2 | NC[C@@H]1O[C@H](O[C@H]2[C@@H](O)[C@H](O[C@@H]3[C@@H](O)[C@H](N)C[C@H](N)[C@H]3O[C@H]3O[C@H](CO)[C@@H](O[C@@H]4O[C@H](CO)[C@@H](O)[C@H](O)[C@H]4O)[C@H](O)[C@H]3N)O[C@@H]2CO)[C@H](N)[C@@H](O)[C@@H]1O | 76 µM | 128 µg/mL (≈ 165 µM) | ≥ 128 µg/mL | > 128 µg/mL | 0.476 µM | > 128 µg/mL | 32 µg/mL (≈ 41.1 µM) | 83.64 µg/mL | 15.5 µg/mL | 9.32 µg/mL | 117.53 µg/mL | 294.83 µg/mL | 128 µg/mL (≈ 165 µM) | 60.75 µg/mL | > 128 µg/mL | > 128 µg/mL

Source: ChEMBL document CHEMBL3588782, “Synthesis, antiribosomal and antibacterial activity of 4-O-glycopyranosyl paromomycin aminoglycoside antibiotics” (Medchemcomm, 2014)
